Source: ChEMBL document CHEMBL1629708, “Discovery of dihydrothieno- and dihydrofuropyrimidines as potent pan Akt inhibitors” (Bioorg Med Chem Lett, 2010)

What was measured:
[1] = target: T1, RAC-alpha serine/threonine-protein kinase (Homo sapiens, UniProt P31749); assay: Inhibition of Akt1
[2] = target: T1, RAC-alpha serine/threonine-protein kinase; assay: Inhibition of Akt in human LNCaP cell assessed as inhibition of PRAS40 phosphorylation; format: cell-based
[3] = Inhibition of PKA
[4] = Ratio of IC50 for Akt1 to IC50 for Akt2
[5] = Inhibition of PKA at 1 uM
[6] = target: Protein kinase C eta type (Homo sapiens) (UniProt P24723); assay: Inhibition of PKCeta at 1 uM
Sequence of Protein kinase C eta type (Homo sapiens) (P24723 whole entry): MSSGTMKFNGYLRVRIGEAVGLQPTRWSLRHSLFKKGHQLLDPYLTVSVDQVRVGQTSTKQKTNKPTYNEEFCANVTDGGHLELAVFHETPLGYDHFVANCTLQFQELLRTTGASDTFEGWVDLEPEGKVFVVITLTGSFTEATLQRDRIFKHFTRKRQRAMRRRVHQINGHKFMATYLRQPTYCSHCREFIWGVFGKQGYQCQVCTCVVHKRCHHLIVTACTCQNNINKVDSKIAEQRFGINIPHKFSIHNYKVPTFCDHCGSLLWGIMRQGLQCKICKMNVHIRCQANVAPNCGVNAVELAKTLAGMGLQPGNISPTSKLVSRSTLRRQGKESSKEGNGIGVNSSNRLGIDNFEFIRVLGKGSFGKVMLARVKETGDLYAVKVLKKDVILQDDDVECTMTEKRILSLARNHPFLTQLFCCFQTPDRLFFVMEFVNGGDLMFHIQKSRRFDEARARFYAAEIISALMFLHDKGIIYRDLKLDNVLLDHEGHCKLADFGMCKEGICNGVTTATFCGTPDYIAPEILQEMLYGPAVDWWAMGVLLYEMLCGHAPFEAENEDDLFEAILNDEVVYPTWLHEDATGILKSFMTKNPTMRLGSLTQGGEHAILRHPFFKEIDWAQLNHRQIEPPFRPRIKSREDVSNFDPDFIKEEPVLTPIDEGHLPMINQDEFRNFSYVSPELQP

[7] = target: Ribosomal protein S6 kinase beta-1 (Homo sapiens) (UniProt P23443); assay: Inhibition of p70S6K at 1 uM
Sequence of Ribosomal protein S6 kinase beta-1 (Homo sapiens) (P23443 whole entry, looked up): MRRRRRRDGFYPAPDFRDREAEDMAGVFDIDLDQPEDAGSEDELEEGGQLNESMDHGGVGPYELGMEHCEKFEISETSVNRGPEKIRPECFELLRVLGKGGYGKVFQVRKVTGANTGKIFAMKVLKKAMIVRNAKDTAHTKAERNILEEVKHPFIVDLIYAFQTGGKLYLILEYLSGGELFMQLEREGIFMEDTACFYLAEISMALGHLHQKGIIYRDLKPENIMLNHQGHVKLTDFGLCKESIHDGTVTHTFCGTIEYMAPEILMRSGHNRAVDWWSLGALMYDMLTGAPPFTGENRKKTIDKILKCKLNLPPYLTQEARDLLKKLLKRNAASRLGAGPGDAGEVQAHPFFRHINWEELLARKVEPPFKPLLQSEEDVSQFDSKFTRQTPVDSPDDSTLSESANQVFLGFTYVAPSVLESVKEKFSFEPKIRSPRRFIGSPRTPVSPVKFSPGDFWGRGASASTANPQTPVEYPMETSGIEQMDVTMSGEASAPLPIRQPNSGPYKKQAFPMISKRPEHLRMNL

[8] = Clearance in rat at 5 mg/kg, iv; format: ADME, organism-based; design: dose 5 mg/kg, route intravenous; conditions: in vivo
[9] = Plasma concentration in rat at 50 mg/kg, po; format: ADME, organism-based; design: dose 50 mg/kg, route oral
PC-3 [10] = assay: Antitumor activity against human PC3 prostate tumor cell xenografted in nude mouse assessed as inhibition of tumor growth at 100 mg/kg, po qd for 14 days; format: functional; conditions: PC-3, 336 h
[11] = Inhibition of PRAS40 phosphorylation in human U87 cells xenografted in mouse at 50 mg/kg, po after 4 hr; format: functional, U-87MG ATCC; conditions: U-87 MG
Plasma [12] = assay: Increase in plasma drug level in nude mouse xenografted with human U87 cells at 50 to 100 mg/kg, po after 1 hr; format: ADME, organism-based, U-87MG ATCC; design: dose 50-100 mg/kg, route oral; conditions: in vivo
Plasma [13] = assay: Increase in plasma drug level in nude mouse xenografted with human U87 cells at 200 mg/kg, po after 1 hr; format: ADME, organism-based, U-87MG ATCC; design: dose 200 mg/kg, route oral; conditions: in vivo
[14] = Inhibition of PRAS40 phosphorylation in human U87 cells xenografted in mouse at 200 mg/kg, po after 4 hrs; format: functional, U-87MG ATCC; conditions: U-87 MG
Plasma [15] = assay: Increase in plasma drug level in nude mouse xenografted with human U87 cells at 50 to 100 mg/kg, po after 4 hrs; format: ADME, organism-based, U-87MG ATCC; design: dose 50-100 mg/kg, route oral; conditions: in vivo
Plasma [16] = assay: Increase in plasma drug level in nude mouse xenografted with human U87 cells at 200 mg/kg, po after 4 hrs; format: ADME, organism-based, U-87MG ATCC; design: dose 200 mg/kg, route oral; conditions: in vivo
PC-3 [17] = assay: Antitumor activity against human PC3 prostate tumor cell xenografted in nude mouse assessed as inhibition of tumor growth at 25 mg/kg, po qd for 14 days; format: functional; design: scale not given: the % may be the effect or the level left
PC-3 [18] = assay: Antitumor activity against human PC3 prostate tumor cell xenografted in nude mouse assessed as inhibition of tumor growth at 50 mg/kg, po qd for 14 days; format: functional; design: scale not given: the % may be the effect or the level left
[19] = Plasma protein binding in rat; format: ADME, cell-free; conditions: read-out: PPB (converted)
PC-3 [20] = assay: Antitumor activity against human PC3 prostate tumor cell xenografted in nude mouse assessed as inhibition of tumor growth at 200 mg/kg, po qd for 14 days; format: functional; design: scale not given: the % may be the effect or the level left
[21] = Bioavailability in rat at 50 mg/kg, po; format: ADME, organism-based; conditions: in vivo
[22] = Inhibition of PRAS40 phosphorylation in human U87 cells xenografted in mouse at 200 mg/kg, po after 12 hrs; format: functional, U-87MG ATCC; conditions: U-87 MG
[23] = Inhibition of PRAS40 phosphorylation in human U87 cells xenografted in mouse at 50 mg/kg, po after 1 hr; format: functional, U-87MG ATCC; conditions: U-87 MG
[24] = Ratio of IC50 for Akt1 to IC50 for Akt3

T1 sequence (P31749 whole entry): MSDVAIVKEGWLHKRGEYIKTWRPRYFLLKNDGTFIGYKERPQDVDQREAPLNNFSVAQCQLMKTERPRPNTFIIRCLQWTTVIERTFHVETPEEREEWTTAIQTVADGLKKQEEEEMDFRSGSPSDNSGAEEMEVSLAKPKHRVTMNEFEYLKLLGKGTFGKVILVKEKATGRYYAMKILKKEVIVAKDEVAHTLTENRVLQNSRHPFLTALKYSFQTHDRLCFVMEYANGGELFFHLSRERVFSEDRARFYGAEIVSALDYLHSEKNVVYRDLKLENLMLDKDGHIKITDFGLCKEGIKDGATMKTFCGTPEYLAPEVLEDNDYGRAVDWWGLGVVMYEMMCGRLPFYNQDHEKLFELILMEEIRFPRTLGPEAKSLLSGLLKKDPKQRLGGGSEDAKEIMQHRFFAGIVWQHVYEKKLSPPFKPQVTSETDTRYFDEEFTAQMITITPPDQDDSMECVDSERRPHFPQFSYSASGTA

IC50 [1] [nM]	IC50 [2] [nM]	IC50 [3] [nM]	SMILES	other results
2	92	30	CC(C)NCC(Cc1ccc(Cl)c(F)c1)C(=O)N1CCN(c2ncnc3c2[C@H](C)SC3)CC1 (stereo partly specified)	–
–	160	6	Cc1c[nH]c2ncnc(N3CCN(C(=O)[C@H](N)Cc4ccc(F)cc4)CC3)c12	–
10	759	285	CC(C)NCC(Cc1ccc(F)c(F)c1)C(=O)N1CCN(c2ncnc3c2[C@H](C)SC3)CC1 (stereo partly specified)	–
3	178	75	C[C@@H]1SCc2ncnc(N3CCN(C(=O)C(Cc4ccc(Cl)cc4)CN4CCCC4)CC3)c21 (stereo partly specified)	–
6	315	88	CC(C)NCC(Cc1ccc(Cl)c(F)c1)C(=O)N1CCN(c2ncnc3c2[C@H](C)OC3)CC1 (stereo partly specified)	–
42	2470	308	C[C@@H]1SCc2ncnc(N3CCN(C(=O)C(Cc4ccc(Cl)cc4)C4(N)CC4)CC3)c21 (stereo partly specified)	–
16	995	315	Cc1ccc(CC(CNC(C)C)C(=O)N2CCN(c3ncnc4c3[C@H](C)OC4)CC2)cc1 (stereo partly specified)	–
4	602	30	C[C@@H]1SCc2ncnc(N3CCN(C(=O)[C@H](N)Cc4ccc(F)c(F)c4)CC3)c21	–
3	216	101	Cc1ccc(CC(CNC(C)C)C(=O)N2CCN(c3ncnc4c3[C@H](C)SC4)CC2)cc1 (stereo partly specified)	–
6	438	73	C[C@@H]1SCc2ncnc(N3CCN(C(=O)C(Cc4ccc(Cl)cc4)CC(C)(C)N)CC3)c21 (stereo partly specified)	–
–	–	–	CC(C)NCC(C(=O)N1CCN(c2ncnc3c2C(C)SC3)CC1)c1ccc(Cl)cc1 (stereo unspecified)	Ratio IC50 [4]: 5
7	1200	52	CCC1SCc2ncnc(N3CCN(C(=O)[C@H](N)Cc4ccc(Cl)cc4)CC3)c21 (stereo partly specified)	–
3	159	80	CC(C)NCC(Cc1ccc(Cl)cc1)C(=O)N1CCN(c2ncnc3c2[C@H](C)SC3)CC1 (stereo partly specified)	inhibition [5]: > 50%; inhibition [6]: > 50%; inhibition [7]: > 50%
22	3850	223	N[C@H](Cc1ccc(Cl)cc1)C(=O)N1CCN(c2ncnc3c2CSC3)CC1	–
3	125	52	CC(C)NC[C@H](Cc1ccc(Cl)cc1)C(=O)N1CCN(c2ncnc3c2[C@H](C)OC3)CC1	inhibition [5]: > 50%; inhibition [6]: > 50%; inhibition [7]: > 50%
52	21000	1300	N[C@H](Cc1ccc(Cl)cc1)C(=O)N1CCN(c2ncnc3c2CS(=O)(=O)C3)CC1	–
7	615	61	C[C@@H]1OCc2ncnc(N3CCN(C(=O)[C@H](N)Cc4ccc(Cl)cc4)CC3)c21	–
4	310	31	CC1SCc2ncnc(N3CCN(C(=O)[C@H](N)Cc4ccc(Cl)cc4)CC3)c21 (stereo partly specified)	–
3	250	30	C[C@@H]1SCc2ncnc(N3CCN(C(=O)C(Cc4ccc(Cl)c(F)c4)CC4(N)CC4)CC3)c21 (stereo partly specified)	–
127	–	5620	CC(C)NC[C@@H](Cc1ccc(Cl)cc1)C(=O)N1CCN(c2ncnc3c2[C@H](C)SC3)CC1	–
11	1590	104	C[C@@H]1SCc2ncnc(N3CCN(C(=O)[C@H](N)Cc4ccc(F)cc4)CC3)c21	–
18	592	91	C[C@@H]1OCc2ncnc(N3CCN(C(=O)C(Cc4ccc(Cl)c(F)c4)CC(C)(C)N)CC3)c21 (stereo partly specified)	–
1	137	35	CC(C)NC[C@H](Cc1ccc(Cl)cc1)C(=O)N1CCN(c2ncnc3c2[C@H](C)SC3)CC1	clearance [8]: 94 mL/min/kg; AUC [9]: 56200 ng·h/mL; inhibition in vivo at 100 mg/kg (PC-3 [10]): 61%; inhibition in vivo at 50 mg/kg [11]: 60%; Activity (Plasma [12]): Active; Activity (Plasma [13]): Active; inhibition in vivo at 200 mg/kg [14]: 83%; Activity (Plasma [15]): Active; Activity (Plasma [16]): Active; Activity (PC-3 [17]): 15%; Activity (PC-3 [18]): 42%; fraction unbound [19]: 0.3; Activity (PC-3 [20]): 84%; bioavailability [21]: > 100%; inhibition in vivo at 200 mg/kg [22]: 65%; inhibition in vivo at 50 mg/kg [23]: 85%
7	587	63	C[C@@H]1SCc2ncnc(N3CCN(C(=O)C(Cc4ccc(Cl)c(F)c4)CC(C)(C)N)CC3)c21 (stereo partly specified)	–
260	18500	1710	C[C@H]1SCc2ncnc(N3CCN(C(=O)[C@H](N)Cc4ccc(Cl)cc4)CC3)c21	–
1	184	13	C[C@@H]1SCc2ncnc(N3CCN(C(=O)[C@H](N)Cc4ccc(Cl)cc4)CC3)c21	–
–	–	–	CC(C)NCC(C(=O)N1CCN(c2ncnc3c2C(C)OC3)CC1)c1ccc(Cl)cc1 (stereo unspecified)	Ratio IC50 [24]: 3
–	3630	–	C[C@@H]1SCc2ncnc(N3CCN(C(=O)[C@H](N)Cc4c[nH]c5ccccc45)CC3)c21	–
2	176	8	C[C@@H]1SCc2ncnc(N3CCN(C(=O)[C@H](N)Cc4ccc(Cl)c(F)c4)CC3)c21	–
